Reference: PubChem BioAssay AID1963853 (Molecular Pharmacology Branch, DTP, NCI, 2024)

Test system: 266295-075-R-J1-PDC spheroid viability
Test: Anticancer human tumor 266295-075-R-J1-PDC patient-derived head and neck squamous carcinoma cell line growth inhibition [POLQ]
Settings: spheroids with HUVEC and MSC; for IC50: curve of first compound; for viability, T/C: stronger effect = lower value
How it was run: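 Patient-derived tumour cells were co-cultured with HUVEC and mesenchymal stem cells as multicellular spheroids at 37 °C. They were treated with POLQ inhibitors (novobiocin, ART-558, RP6685) alone or combined with other agents. Top concentrations were at or near clinical Cmax (otherwise 10 microM; SN-38 at 1 microM), decreasing in half-log steps.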

[1] = second compound 0.0316 µM, first compound 0.0316 µM
[2] = second compound 0.0316 µM, first compound 0.1 µM
[3] = second compound 0.0316 µM, first compound 0.316 µM
[4] = second compound 0.0316 µM, first compound 1 µM
[5] = second compound 0.0316 µM, first compound 3.16 µM
[6] = second compound 0.0316 µM, first compound 10 µM
[7] = second compound 0.1 µM, first compound 0.0316 µM
[8] = second compound 0.1 µM, first compound 0.1 µM
[9] = second compound 0.1 µM, first compound 0.316 µM
[10] = second compound 0.1 µM, first compound 1 µM
[11] = second compound 0.1 µM, first compound 3.16 µM
[12] = second compound 0.1 µM, first compound 10 µM
[13] = second compound 0.316 µM, first compound 0.0316 µM
[14] = second compound 0.316 µM, first compound 0.1 µM
[15] = second compound 0.316 µM, first compound 0.316 µM
[16] = second compound 0.316 µM, first compound 1 µM
[17] = second compound 0.316 µM, first compound 3.16 µM
[18] = second compound 0.316 µM, first compound 10 µM
[19] = second compound 1 µM, first compound 0.0316 µM
[20] = second compound 1 µM, first compound 0.1 µM
[21] = second compound 1 µM, first compound 0.316 µM
[22] = second compound 1 µM, first compound 1 µM
[23] = second compound 1 µM, first compound 3.16 µM
[24] = second compound 1 µM, first compound 10 µM
[25] = second compound 3.16 µM, first compound 0.0316 µM
[26] = second compound 3.16 µM, first compound 0.1 µM
[27] = second compound 3.16 µM, first compound 0.316 µM
[28] = second compound 3.16 µM, first compound 1 µM
[29] = second compound 3.16 µM, first compound 3.16 µM
[30] = second compound 3.16 µM, first compound 10 µM
[31] = second compound 10 µM, first compound 0.0316 µM
[32] = second compound 10 µM, first compound 0.1 µM
[33] = second compound 10 µM, first compound 0.316 µM
[34] = second compound 10 µM, first compound 1 µM
[35] = second compound 10 µM, first compound 3.16 µM
[36] = second compound 10 µM, first compound 10 µM
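Further: spheroids exposed to compounds for seven days before readout.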

`O=C(c1cc(Cc2n[nH]c(=O)c3ccccc23)ccc1F)N1CCN(C(=O)C2CC2)CC1` + COC1C(OC(N)=O)C(O)C(Oc2ccc3c(O)c(NC(=O)c4ccc(O)c(CC=C(C)C)c4)c(=O)oc3c2C)OC1(C)C was tested, and the IC50 (second compound 0.0316 µM) was > 10 µM, the IC50 (second compound 0.1 µM) was > 10 µM and the IC50 (second compound 0.316 µM) was > 10 µM. For the same molecule, the IC50 (second compound 1 µM) was > 10 µM, the IC50 (second compound 3.16 µM) was > 10 µM and the IC50 (second compound 10 µM) was > 10 µM. The viability, T/C [1] was 84.6%, the viability, T/C [2] was 107% and the viability, T/C [3] was 84.8%. The viability, T/C [4] was 110%, the viability, T/C [5] was 87.7% and the viability, T/C [6] was 97.9%. It also gave a viability, T/C [7] of 89.2%, a viability, T/C [8] of 114% and a viability, T/C [9] of 89.9%. The viability, T/C [10] was 93.7%, the viability, T/C [11] was 98.6% and the viability, T/C [12] was 84.6%. It also gave a viability, T/C [13] of 101%, a viability, T/C [14] of 99.8% and a viability, T/C [15] of 88.9%. The viability, T/C [16] was 99.8%, the viability, T/C [17] was 93.6% and the viability, T/C [18] was 80%. The viability, T/C [19] was 98.1%, the viability, T/C [20] was 89.8% and the viability, T/C [21] was 88.1%. The viability, T/C [22] was 82.3%, the viability, T/C [23] was 83.5% and the viability, T/C [24] was 90.9%. The viability, T/C [25] was 96.6%, the viability, T/C [26] was 103% and the viability, T/C [27] was 104%. It also gave a viability, T/C [28] of 83.8%, a viability, T/C [29] of 100% and a viability, T/C [30] of 102%. The viability, T/C [31] was 106%, the viability, T/C [32] was 89.7% and the viability, T/C [33] was 90.8%. The viability, T/C [34] was 89.4%, the viability, T/C [35] was 112% and the viability, T/C [36] was 81.4%.

For `C=CCn1c(=O)c2cnc(Nc3ccc(N4CCN(C)CC4)cc3)nc2n1-c1cccc(C(C)(C)O)n1` + Nc1ccc(C#CCN(C(=O)Cc2ncc(C(F)(F)F)cc2C(F)(F)F)c2ccc(F)cc2)nn1, the IC50 (second compound 0.0316 µM) was > 1 µM, the IC50 (second compound 0.1 µM) was > 1 µM and the IC50 (second compound 0.316 µM) was > 1 µM. For the same molecule, the IC50 (second compound 1 µM) was > 1 µM, the IC50 (second compound 3.16 µM) was > 1 µM and the IC50 (second compound 10 µM) was > 1 µM. For the same molecule, the viability, T/C (second compound 0.0316 µM, first compound 0.00316 µM) was 102%, the viability, T/C (second compound 0.0316 µM, first compound 0.01 µM) was 90.4% and the viability, T/C [1] was 101%. The viability, T/C [2] was 89.2%, the viability, T/C [3] was 86.2% and the viability, T/C [4] was 63.8%. The viability, T/C (second compound 0.1 µM, first compound 0.00316 µM) was 114%, the viability, T/C (second compound 0.1 µM, first compound 0.01 µM) was 95.8% and the viability, T/C [7] was 88.1%. The viability, T/C [8] was 125%, the viability, T/C [9] was 84.1% and the viability, T/C [10] was 68.8%. It also gave a viability, T/C (second compound 0.316 µM, first compound 0.00316 µM) of 98.7%, a viability, T/C (second compound 0.316 µM, first compound 0.01 µM) of 99.1% and a viability, T/C [13] of 84.1%. The viability, T/C [14] was 85.2%, the viability, T/C [15] was 69.3% and the viability, T/C [16] was 65.3%. It also gave a viability, T/C (second compound 1 µM, first compound 0.00316 µM) of 93%, a viability, T/C (second compound 1 µM, first compound 0.01 µM) of 96.2% and a viability, T/C [19] of 87.7%. The viability, T/C [20] was 101%, the viability, T/C [21] was 81.3% and the viability, T/C [22] was 54.3%. The viability, T/C (second compound 3.16 µM, first compound 0.00316 µM) was 102%, the viability, T/C (second compound 3.16 µM, first compound 0.01 µM) was 106% and the viability, T/C [25] was 85.2%. The viability, T/C [26] was 77.3%, the viability, T/C [27] was 72.4% and the viability, T/C [28] was 63.5%. For the same molecule, the viability, T/C (second compound 10 µM, first compound 0.00316 µM) was 115%, the viability, T/C (second compound 10 µM, first compound 0.01 µM) was 90.6% and the viability, T/C [31] was 91.5%. For the same molecule, the viability, T/C [32] was 109%, the viability, T/C [33] was 81.2% and the viability, T/C [34] was 57.3%.

`C=CC(=O)N1CCN(c2nc(=O)n(-c3c(C)ccnc3C(C)C)c3nc(-c4c(O)cccc4F)c(F)cc23)C(C)C1` (stereo unspecified) + Cc1cccc(N(C)C(=O)C2C(O)CCN2c2nc(C)cc(C(F)(F)F)c2C#N)c1 was tested, and the IC50 (second compound 0.0316 µM) was > 10 µM, the IC50 (second compound 0.1 µM) was > 10 µM and the IC50 (second compound 0.316 µM) was > 10 µM. For the same molecule, the IC50 (second compound 1 µM) was > 10 µM, the IC50 (second compound 3.16 µM) was > 10 µM and the IC50 (second compound 10 µM) was > 10 µM. It also gave a viability, T/C [1] of 95.2%, a viability, T/C [2] of 89.3% and a viability, T/C [3] of 97%. It also gave a viability, T/C [4] of 110%, a viability, T/C [5] of 140% and a viability, T/C [6] of 126%. For the same molecule, the viability, T/C [7] was 91.5%, the viability, T/C [8] was 92.7% and the viability, T/C [9] was 96.2%. It also gave a viability, T/C [10] of 115%, a viability, T/C [11] of 123% and a viability, T/C [12] of 131%. For the same molecule, the viability, T/C [13] was 93.6%, the viability, T/C [14] was 116% and the viability, T/C [15] was 100%. It also gave a viability, T/C [16] of 126%, a viability, T/C [17] of 116% and a viability, T/C [18] of 121%. It also gave a viability, T/C [19] of 91.6%, a viability, T/C [20] of 108% and a viability, T/C [21] of 112%. It also gave a viability, T/C [22] of 103%, a viability, T/C [23] of 125% and a viability, T/C [24] of 130%. It also gave a viability, T/C [25] of 99.5%, a viability, T/C [26] of 105% and a viability, T/C [27] of 118%. The viability, T/C [28] was 133%, the viability, T/C [29] was 126% and the viability, T/C [30] was 116%. It also gave a viability, T/C [31] of 117%, a viability, T/C [32] of 108% and a viability, T/C [33] of 128%. The viability, T/C [34] was 120%, the viability, T/C [35] was 132% and the viability, T/C [36] was 105%.
